Residues, ends and D or L forms follow the SMILES beside them. *: point of attachment. Biotin = O=C1N[C@H]2[C@H](CS[C@H]2CCCCC(=O)*)N1
Assays:
ZO-1 d2 [1] = biological target: T1, ZO-1 d2 (Homo sapiens, UniProt Q07157, DEL264-264); assay: G assay, peptide binding to GST-PDZ fusion (Table 11); settings: Table 11, titrations or binding assays
T1 construct: made in house; host or cells: E. coli (DH5alpha, BL21 or JM109)
T1 sequence (Q07157 with tags, fused parts or gaps DEL264-264): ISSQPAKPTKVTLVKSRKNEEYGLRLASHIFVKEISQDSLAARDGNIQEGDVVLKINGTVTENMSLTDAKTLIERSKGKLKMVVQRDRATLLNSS
Protocol: (§6) The binding of labeled PL peptide (e.g., as listed in TABLE 2 and TABLE 4) to this surface is then measured. In a preferred embodiment, the assay is carried out as follows:
(§7) (1) A PDZ-domain polypeptide is bound to a surface, e.g. a protein binding surface. In a preferred embodiment, a GST/PDZ fusion protein containing one or more PDZ domains is bound to a polystyrene 96-well plate. […] In one embodiment, the GST/PDZ fusion protein is bound via an anti-GST antibody that is coated onto the 96-well plate. Adequate binding to the plate can be achieved when:
(§8) (2) Biotinylated PL peptides are allowed to react with the surface by addition of 50 μl per well of 20 μM solution of the biotinylated peptide in PBS/BSA for 10 minutes at 4° C., followed by an additional 20 minute incubation at 25° C. The plate is washed 3 times with ice cold PBS.
(§9) (3) The binding of the biotinylated peptide to the GST/PDZ fusion protein surface can be detected using a variety of methods and detectors known to one of skill in the art. In one embodiment, 100 μl per well of 0.5 μg/ml streptavidin-horseradish peroxidase (HRP) conjugate dissolved in BSA/PBS is added and allowed to react for 20 minutes at 4° C. The plate is then washed 5 times with 50 mM Tris pH 8.0 containing 0.2% Tween 20, and developed by addition of 100 μl per well of HRP-substrate solution (TMB, Dako) for 20 minutes at room temperature (RT). The reaction of the HRP and its substrate is terminated by addition of 100 μl per well of 1 M sulfuric acid, and the optical density (O.D.) of each well of the plate is read at 450 um.
(§10) (4) Specific binding of a PL peptide and a PDZ domain polypeptide is determined by comparing the signal from the well(s) in which the PL peptide and PDZ domain polypeptide are combined, with the background signal(s). […] Typically a specific or selective reaction will be at least twice background signal, more typically more than 5 times background, and most typically 10 or more times the background signal. […] Correspondingly, a statistical test (e.g. a T-test) comparing repeated measurements of the signal with -repeated measurements of the background will result in a p-value <0.05, more typically a p-value <0.01, and most typically a p-value <0.001 or less. As noted, in an embodiment of the G assay, the signal from binding of a given PL peptide to immobilized (surface bound) GST polypeptide alone is one suitable negative control (sometimes referred to as B1). Because all measurement are done in multiples (i.e. at least duplicate) the arithmetic mean (or, equivalently, average.) of several measurements is used in determining the binding, and the standard error of the mean is used in determining the probable error in the measurement of the binding. The standard error of the mean of N measurements equals the square root of the following: the sum of the squares of the difference between each measurement and the mean, divided by the product of (N) and (N−1). Thus, in one embodiment, specific binding of the PDZ protein to the platebound peptide is determined by comparing the mean signal (“mean S”) and standard error of the signal (“SE”) for a particular PL-PDZ combination with the mean B1.

ZO-1 d2 [2] = biological target: T1, ZO-1 d2; assay: G3 assay titration, GST-PDZ fusion / biotinylated peptide; assay type: binding; settings: for ODmax (450 nm): Table 10, titration of peptides with ZO-1 d2
Protocol: (§1) The G3 assay is identical to the G0 assay with the following exceptions. The peptides are typically present at 0.1 μM rather than 20 μM. The peptides are also pre-incubated with the HRP-streptavidin prior to adding to the assay plate. In the G0 assay, free peptide is incubated with the PDZ proteins prior to the addition of the HRP-streptavidin. Thus, for the G0 assay one can lose signal if the bound peptide dissociates from the PDZ protein prior to the addition of the HRP-streptavidin. In the G3 modified assay the HRP-streptavidin/peptide complex is added to the plate in one step, thus increasing the likelihood that all the bound peptide will be bound to HRP-streptavidin. The G3 modified assay increases the chance of observing weak interactions.
(§2) This example describes assays to identify binding between TRPM7 and PDZ domains. GST-PDZ fusions are produced that each contain an entire PDZ domain (or multiple PDZ domains), the collection encompassing approximately 90% of all PDZ domains identified in the human genome. (See Table 5 and Section V (PDZ Proteins and PL Protein Interactions Disclosure). Biotinylated peptide corresponding to 11 residues of Tat coupled to the C-terminal 9 amino acids of TRPM7 ([…]; SEQ ID NO:258) is synthesized and purified by HPLC.
(§3) • Nunc MaxiSorp 96 well Immuno-plate, Nunc • PBS pH 7.4 (phosphate buffered saline, 8 g NaCl, 0.29 g KCl, 1.44 g Na2HPO4, 0.24 g KH2PO4, add H2O to 1 liter and pH 7.4; 0.2 μm filter) • Assay Buffer: 2% BSA in PBS (20 g of bovine serum albumin per liter PBS, fraction V, ICN Biomedicals, cat#IC15142983 • Goat anti-GST polyclonal Ab, stock 5 mg/ml, stored at 4° C., Amersham Pharmacia cat#27-4577-01 • Dilute 1:1000 in PBS, final concentration 5 μg/ml. • HRP-Streptavidin, 2.5 mg/2 ml stock stored at 4° C., Zymed cat#43-4323, dilute 1:2000 into Assay buffer, final concentration of […] • Wash Buffer, PBS • Biotinylated peptides (HPLC purified, stock solution stored in −20° C. freezer) • GST-PRISM proteins (stock stored at −80° C., after 1st thaw store in −10° C. freezer) • TMB (3,3′,5,5′, teramethylbensidine), tablets, Sigma cat.#T5525 • Per plate, dissolve 1 tablet in 1 ml DMSO, add 9 ml Citrate/Phosphate buffer pH 5.4 and 2 μL H2O2 • 0.1 M H2SO4, Sigma cat.#S1526 • 12-w multichannel pipettor & tips • 50 ml reagent reservoirs, Costar#4870 • 50, 15 ml polypropylene conical tubes • Costar Transtar 96 Costar #7605 • Transtar 96 Cartridge Costar #7610 • Molecular Devices microplate reader (450 & 650 nm filters) with SoftMax Pro software *When using reagents stored at or 4° C. or −20° C., remove & keep on ice
(§4) • 1. Coat plate with 100 μl of 5 μg/ml anti-GST, overnight at 4° C. • 2. Dump contents of plate & out tap dry on paper towels • 3. Block with 200 μl Assay Buffer for 2 hrs at room temperature • 4. Prepare proteins at 5 μg/ml in Assay Buffer • 5. Wash 3× with cold PBS (4° C.), avoiding letting the plates dry out • 6. Add proteins at 50 μl per well, incubate 1 to 2 hrs at 4° C. • 7. Prepare peptides to desired concentration in Assay Buffer • 8. Wash 3× with cold PBS (4° C.), avoiding letting the plates dry out • 9. Add HRP-Streptavidin/peptide complex [prepared by incubating for 20 minutes at room temperature HRP-Streptavidin (1:2000) with the desired biotin-peptide concentration for 20 minutes at room temperature] at 50 μl per well on ice • 10. Place at room temperature for exactly 30 minutes • 11. Promptly wash 5× with PBS at room temperature • 12. Add 100 μl/well TMB substrate (write time on plate) • 13. Incubate in dark at room temperature for a maximum of 30 minutes • 14. Read plate at 25 minutes (650 nm), optional • 15. Stop reaction with 100 μl of 0.18 M H2SO4, 30 minutes after adding TMB • Take last reading at 450 nm soon after stopping reaction
(§5) The G3 assay was performed using 0.1 μM peptide representing 11 amino acids of Tat fused to the final 9 amino acids of TRPM7 ([…]; SEQ ID NO:258). […]

INADL d3 [3] = biological target: T2, INADL d3 (Homo sapiens, UniProt Q8NI35); assay: as above; assay type: binding; settings: for ODmax (450 nm): Table 10, titration of peptides with INADL d3
T2 construct: made in house; host or cells: E. coli (DH5alpha, BL21 or JM109)
T2 sequence (Q8NI35 with tags, fused parts or gaps): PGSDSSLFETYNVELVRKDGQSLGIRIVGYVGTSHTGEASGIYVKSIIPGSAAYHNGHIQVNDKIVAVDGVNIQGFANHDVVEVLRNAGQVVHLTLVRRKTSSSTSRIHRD
Protocol: as §1, §2, §3, §4, §5

TRPM2 = TRPM2 (Homo sapiens, UniProt O94759); settings: binding to carboxy-terminal NUDT9 Nudix hydrolase domain; read-out: EC50, gating of TRPM2 channel; cited from earlier work
INADL d3 [4] = biological target: T2, INADL d3; assay: G assay, peptide binding to GST-PDZ fusion (Table 11); settings: Table 11, titrations or binding assays
Protocol: as §6, §7, §8, §9, §10

Chain of TRPM2 (O94759 whole entry, the tested form may be a part): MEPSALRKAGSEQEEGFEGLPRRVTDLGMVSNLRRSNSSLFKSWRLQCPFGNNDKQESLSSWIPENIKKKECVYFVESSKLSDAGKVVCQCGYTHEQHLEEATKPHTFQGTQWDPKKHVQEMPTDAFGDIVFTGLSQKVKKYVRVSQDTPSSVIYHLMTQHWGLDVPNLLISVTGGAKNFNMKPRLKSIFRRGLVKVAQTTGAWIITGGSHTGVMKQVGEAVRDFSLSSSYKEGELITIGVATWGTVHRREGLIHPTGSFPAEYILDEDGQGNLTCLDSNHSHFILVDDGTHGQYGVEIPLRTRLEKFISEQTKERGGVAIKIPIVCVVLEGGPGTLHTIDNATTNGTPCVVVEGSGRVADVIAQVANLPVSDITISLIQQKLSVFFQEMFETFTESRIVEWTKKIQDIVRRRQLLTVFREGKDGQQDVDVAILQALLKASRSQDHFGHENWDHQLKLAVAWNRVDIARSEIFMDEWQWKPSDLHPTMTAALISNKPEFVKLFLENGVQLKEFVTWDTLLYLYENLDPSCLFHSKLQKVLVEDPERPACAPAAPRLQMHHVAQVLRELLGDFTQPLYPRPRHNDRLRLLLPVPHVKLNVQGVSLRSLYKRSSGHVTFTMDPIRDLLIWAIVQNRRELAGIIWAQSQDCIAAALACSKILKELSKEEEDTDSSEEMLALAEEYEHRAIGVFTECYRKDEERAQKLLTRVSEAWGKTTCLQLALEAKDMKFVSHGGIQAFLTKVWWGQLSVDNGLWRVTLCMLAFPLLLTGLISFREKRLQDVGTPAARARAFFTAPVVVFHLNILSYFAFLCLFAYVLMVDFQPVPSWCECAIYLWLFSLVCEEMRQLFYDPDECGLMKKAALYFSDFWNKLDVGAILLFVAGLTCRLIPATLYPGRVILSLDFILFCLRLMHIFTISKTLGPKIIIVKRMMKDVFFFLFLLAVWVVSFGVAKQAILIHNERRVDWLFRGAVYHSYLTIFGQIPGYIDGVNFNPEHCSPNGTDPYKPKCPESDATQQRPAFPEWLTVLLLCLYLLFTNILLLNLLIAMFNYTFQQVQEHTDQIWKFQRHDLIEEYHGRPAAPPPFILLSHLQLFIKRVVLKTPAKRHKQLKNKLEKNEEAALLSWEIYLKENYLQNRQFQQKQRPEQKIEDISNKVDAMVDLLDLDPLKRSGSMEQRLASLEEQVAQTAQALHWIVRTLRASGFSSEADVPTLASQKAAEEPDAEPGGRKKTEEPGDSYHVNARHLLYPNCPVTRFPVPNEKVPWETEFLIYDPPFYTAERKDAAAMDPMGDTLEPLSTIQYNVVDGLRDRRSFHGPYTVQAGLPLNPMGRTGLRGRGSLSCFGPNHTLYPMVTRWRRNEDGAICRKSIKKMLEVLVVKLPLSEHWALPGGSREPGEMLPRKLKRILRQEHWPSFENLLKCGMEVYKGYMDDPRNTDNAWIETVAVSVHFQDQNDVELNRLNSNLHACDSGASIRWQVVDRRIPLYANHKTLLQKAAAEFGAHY

CC[C@H](C)[C@H](NC(=O)[C@H](CC(C)C)NC(=O)[C@H](CCCNC(=N)N)NC(=O)[C@H](CCCNC(=N)N)NC(=O)[C@H](CCC(=O)O)NC(=O)[C@H](CC(=O)O)NC(=O)[C@H](CCC(N)=O)NC(=O)[C@H](CCCNC(=N)N)NC(=O)[C@H](CCCNC(=N)N)NC(=O)[C@H](CCCNC(=N)N)NC(=O)[C@H](CCC(N)=O)NC(=O)[C@H](CCCNC(=N)N)NC(=O)[C@H](CCCNC(=N)N)NC(=O)[C@H](CCCCN)NC(=O)[C@H](CCCCN)NC(=O)[C@H](CCCNC(=N)N)NC(=O)CNC(=O)[C@H](Cc1ccc(O)cc1)NC(=O)CCCC[C@@H]1SC[C@@H]2NC(=O)N[C@@H]21)C(=O)N[C@H](C(=O)N[C@@H](CC(C)C)C(=O)O)C(C)C [Peptide 1842] (Biotin-YGRKKRRQRRRQDERRLIVL-OH)
PDZ domain bound (ZO-1 d2 [1]): ZO-1 D2 | EC50 (ZO-1 d2 [2]): 0.035 µM | ODmax (450 nm) (ZO-1 d2 [2]): 2.30 | EC50 (INADL d3 [3]): < 1 µM | ODmax (450 nm) (INADL d3 [3]): 1.90

Nc1ncnc2c1ncn2[C@@H]1O[C@H](COP(=O)(O)OP(=O)(O)OC[C@H]2OC(O)[C@H](O)[C@@H]2O)[C@@H](O)[C@H]1O (stereo partly drawn) [ADP ribose]
EC50 (TRPM2): 100 µM

NC(=O)c1ccc[n+]([C@@H]2O[C@H](COP(=O)([O-])OP(=O)(O)OC[C@H]3O[C@@H](n4cnc5c(N)ncnc54)[C@H](O)[C@@H]3O)[C@@H](O)[C@H]2O)c1 [nicotinamide adenine dinucleotide]
EC50 (TRPM2): 1000 µM

C[C@H](NC(=O)[C@H](Cc1c[nH]c2ccccc12)NC(=O)[C@H](Cc1ccc(O)cc1)NC(=O)[C@H](CCCCN)NC(=O)[C@H](CCCNC(=N)N)NC(=O)[C@H](CC(=O)O)NC(=O)[C@@H](NC(=O)[C@H](CCCNC(=N)N)NC(=O)[C@H](CO)NC(=O)[C@H](CCCNC(=N)N)NC(=O)[C@H](CCCNC(=N)N)NC(=O)[C@H](CCCNC(=N)N)NC(=O)[C@H](CCC(N)=O)NC(=O)[C@H](CCCNC(=N)N)NC(=O)[C@H](CCCNC(=N)N)NC(=O)[C@H](CCCCN)NC(=O)[C@H](CCCCN)NC(=O)[C@H](CCCNC(=N)N)NC(=O)CNC(=O)[C@H](Cc1ccc(O)cc1)NC(=O)CCCC[C@@H]1SC[C@@H]2NC(=O)N[C@@H]21)[C@@H](C)O)C(=O)O [Peptide 1832] (Biotin-YGRKKRRQRRRSRTDRKYWA-OH; C-terminus assumed)
PDZ domain bound (INADL d3 [4]): INADL D3 | PDZ domain bound (ZO-1 d2 [1]): ZO-1 D2 | EC50 (ZO-1 d2 [2]): < 0.02 µM | ODmax (450 nm) (ZO-1 d2 [2]): 2.10 | EC50 (INADL d3 [3]): 0.2 µM | ODmax (450 nm) (INADL d3 [3]): 0.60

CC[C@H](C)[C@H](NC(=O)[C@@H](NC(=O)[C@H](CCCNC(=N)N)NC(=O)[C@H](CC(=O)O)NC(=O)[C@H](CO)NC(=O)[C@H](CCCNC(=N)N)NC(=O)[C@H](C)NC(=O)[C@H](CCCNC(=N)N)NC(=O)[C@H](CCCNC(=N)N)NC(=O)[C@H](CCCNC(=N)N)NC(=O)[C@H](CCC(N)=O)NC(=O)[C@H](CCCNC(=N)N)NC(=O)[C@H](CCCNC(=N)N)NC(=O)[C@H](CCCCN)NC(=O)[C@H](CCCCN)NC(=O)[C@H](CCCNC(=N)N)NC(=O)CNC(=O)[C@H](Cc1ccc(O)cc1)NC(=O)CCCC[C@@H]1SC[C@@H]2NC(=O)N[C@@H]21)[C@@H](C)O)C(=O)N[C@@H](Cc1c[nH]c2ccccc12)C(=O)N[C@@H](C)C(=O)O [Peptide 1829] (Biotin-YGRKKRRQRRRARSDRTIWA-OH; C-terminus assumed)
PDZ domain bound (INADL d3 [4]): INADL D3 | PDZ domain bound (ZO-1 d2 [1]): ZO-1 D2 | EC50 (ZO-1 d2 [2]): 0.007 µM | ODmax (450 nm) (ZO-1 d2 [2]): 2.90 | ODmax (450 nm) (INADL d3 [3]): 1.40

CC[C@H](C)[C@H](NC(=O)[C@H](CCC(N)=O)NC(=O)[C@H](Cc1ccc(O)cc1)NC(=O)[C@H](CCCCN)NC(=O)[C@H](CCCNC(=N)N)NC(=O)[C@H](CC(=O)O)NC(=O)[C@@H](NC(=O)[C@H](CCCNC(=N)N)NC(=O)[C@H](CO)NC(=O)[C@H](CCCNC(=N)N)NC(=O)[C@H](CCCNC(=N)N)NC(=O)[C@H](CCCNC(=N)N)NC(=O)[C@H](CCC(N)=O)NC(=O)[C@H](CCCNC(=N)N)NC(=O)[C@H](CCCNC(=N)N)NC(=O)[C@H](CCCCN)NC(=O)[C@H](CCCCN)NC(=O)[C@H](CCCNC(=N)N)NC(=O)CNC(=O)[C@H](Cc1ccc(O)cc1)NC(=O)CCCC[C@@H]1SC[C@@H]2NC(=O)N[C@@H]21)[C@@H](C)O)C(=O)O [Peptide 1839] (Biotin-YGRKKRRQRRRSRTDRKYQI-OH; C-terminus assumed)
PDZ domain bound (INADL d3 [4]): INADL D3 | EC50 (ZO-1 d2 [2]): < 0.02 µM | ODmax (450 nm) (ZO-1 d2 [2]): 2.50 | EC50 (INADL d3 [3]): 0.13 µM | ODmax (450 nm) (INADL d3 [3]): 1.60

CC(C)C[C@H](NC(=O)[C@H](CO)NC(=O)[C@@H](NC(=O)[C@H](CC(C)C)NC(=O)[C@H](CCCNC(=N)N)NC(=O)[C@H](CC(=O)O)NC(=O)CNC(=O)[C@H](CCCNC(=N)N)NC(=O)[C@H](C)NC(=O)[C@H](CCCNC(=N)N)NC(=O)[C@H](CCCNC(=N)N)NC(=O)[C@H](CCCNC(=N)N)NC(=O)[C@H](CCC(N)=O)NC(=O)[C@H](CCCNC(=N)N)NC(=O)[C@H](CCCNC(=N)N)NC(=O)[C@H](CCCCN)NC(=O)[C@H](CCCCN)NC(=O)[C@H](CCCNC(=N)N)NC(=O)CNC(=O)[C@H](Cc1ccc(O)cc1)NC(=O)CCCC[C@@H]1SC[C@@H]2NC(=O)N[C@@H]21)C(C)C)C(=O)O [Peptide 1843] (Biotin-YGRKKRRQRRRARGDRLVSL-OH; C-terminus assumed)
PDZ domain bound (ZO-1 d2 [1]): ZO-1 D2 | EC50 (ZO-1 d2 [2]): 0.017 µM | ODmax (450 nm) (ZO-1 d2 [2]): 2.20 | EC50 (INADL d3 [3]): < 2 µM | ODmax (450 nm) (INADL d3 [3]): 1.20

CC[C@H](C)[C@H](NC(=O)[C@H](CCCNC(=N)N)NC(=O)[C@H](Cc1ccc(O)cc1)NC(=O)[C@H](CCCNC(=N)N)NC(=O)[C@H](CC(=O)O)NC(=O)CNC(=O)[C@H](CCCNC(=N)N)NC(=O)[C@H](C)NC(=O)[C@H](CCCNC(=N)N)NC(=O)[C@H](CCCNC(=N)N)NC(=O)[C@H](CCCNC(=N)N)NC(=O)[C@H](CCC(N)=O)NC(=O)[C@H](CCCNC(=N)N)NC(=O)[C@H](CCCNC(=N)N)NC(=O)[C@H](CCCCN)NC(=O)[C@H](CCCCN)NC(=O)[C@H](CCCNC(=N)N)NC(=O)CNC(=O)[C@H](Cc1ccc(O)cc1)NC(=O)CCCC[C@@H]1SC[C@@H]2NC(=O)N[C@@H]21)C(=O)N[C@H](C(=O)O)C(C)C [Peptide 1845] (Biotin-YGRKKRRQRRRARGDRYRIV-OH)
EC50 (ZO-1 d2 [2]): < 0.1 µM | EC50 (INADL d3 [3]): < 0.1 µM

Source: patent publication US20080119412A1, “Polypeptides for Modulating Binding of Trp Channel Proteins and Trp- Associated Proteins” (NoNO Inc., priority 2003, published 2008)
